Experimental data published in patent publication US7700584B2 (Hangzhou Minsheng Pharmaceuticals Co., Ltd., priority 2004, dated 2010).
Where a name gives a salt, the structure may show the parent alone. Read-outs that look alike come from different tables or passages of the source.

Experiments:
[1] = biological target: T1, HIV-1 proteinase (HIV-1 PR) (Human immunodeficiency virus type 1 group M subtype B, UniProt P04585); assay: Screening for in vitro activity against HIV-1 proteinase; type: biochemical
T1 construct: HIV-1 proteinase digests the fluorescent-labeled substrate; purchased
Method in brief: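 Inhibition was scored from product fluorescence after the enzyme was added to buffer holding the labeled substrate and the test sample. Samples were five serial 5× dilutions in water from a DMSO solution. Indinavir served as the reference control; the enzyme was recombinant HIV-1 PR.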

[2] = tested on: A-549 human lung adenocarcinoma; assay: In vitro inhibition rate to tumor cells (MTT), A-549; type: cell-based; settings: for inhibition at 50 µg/mL: Homo sapiens, A549, 50 μg/ml, read-out: inhibition rate, Results (%) A-549; for inhibition rate, Results (%) A-549: 50 μg/ml
HepG2 cells = assay: Cell status of HepG2 cells treated with sample (HBV screening); type: cell-based; settings: 200 μg/ml, HepG2, four days after infection
MDCK (dog kidney) cells = assay: Toxicity TC50 of the samples in MDCK cells (influenza screening); settings: concentration of 50% toxicity
Hepatitis B virus (HBV) = type: cell-based; settings: for (Value of the positive control - Measured Value) Value of the positive control × 100% / OD450 of HBeAg: 200 μg/ml; for (Value of the positive control - Measured Value) Value of the positive control × 100%: decrease of HBeAg relative to positive control; for OD450 of HBeAg: supernatant four days after infection, positive control 1.917, negative 0.057
[3] = tested on: mouse grafted sarcoma S-180; assay: Activity against mouse grafted sarcoma S-180; type: in vivo, Kunming mice; settings: for Tumor weight: X ± SD, n = 10; for inhibitory effect against mouse sarcoma S-180 (in words): three different concentrations (40, 20, 10 mg/kg), i.v.
Method in brief: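 Male Kunming mice inoculated axillarily with S-180, 10 per group, given 10% compound solutions IV at 0.4, 0.2 or 0.1 ml/mouse from the day after inoculation, alternate days, 6 doses. Tumours excised the day after last dose; inhibition rate from mean tumour weight versus saline control; repeated three times.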

[4] = tested on: mouse grafted liver cancer H22; assay: Activity against mouse grafted liver cancer H22; type: in vivo, Kunming mice; settings: for Tumor weight: X ± SD, n = 10; for inhibitory effect against mouse grafted liver cancer H22 (in words): three different concentrations (40, 20, 10 mg/kg), i.v.
Method in brief: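 Male Kunming mice inoculated with liver cancer H22, 10 per group; compounds (10%, 0.4, 0.2 or 0.1 ml/mouse) injected from the day after inoculation on alternate days, 6 doses. Tumours excised the day after last dose; inhibition rate from mean tumour weight versus saline controls; repeated three times.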

[5] = IC50, five 5× serial dilutions from 50 μg/ml
[6] = S-180, first experiment, 10 mg/kg i.v., 6 doses
[7] = S-180, first experiment, 20 mg/kg i.v., 6 doses
[8] = S-180, first experiment, 40 mg/kg i.v., 6 doses
[9] = S-180, second experiment, 10 mg/kg i.v., 6 doses
[10] = S-180, second experiment, 20 mg/kg i.v., 6 doses
[11] = S-180, second experiment, 40 mg/kg i.v., 6 doses
[12] = H22, first experiment, 10 mg/kg i.v., 6 doses
[13] = H22, first experiment, 20 mg/kg i.v., 6 doses
[14] = H22, first experiment, 40 mg/kg i.v., 6 doses
[15] = H22, second experiment, 10 mg/kg
[16] = H22, second experiment, 20 mg/kg
[17] = H22, second experiment, 40 mg/kg
[18] = H22, third experiment, 10 mg/kg
[19] = H22, third experiment, 20 mg/kg
[20] = H22, third experiment, 40 mg/kg

SMILES: C=C1CC2(OC(=O)C(C)C)OC3(CC2C(C)C)C(C)CCC13 (centres unmarked) [Compound 3, Curcumol isobutyrate]
- inhibition at 0.08 µg/mL ([1]; 0.08 μg/ml, read-out: Inhibition rate): 4.98%
- inhibition at 0.4 µg/mL ([1]; 0.40 μg/ml, read-out: Inhibition rate): 13.5%
- inhibition at 2 µg/mL ([1]; 2.0 μg/ml, read-out: Inhibition rate): 9.64%
- inhibition at 10 µg/mL ([1]; 10 μg/ml, read-out: Inhibition rate): 12.1%
- IC50 [1, 5]: > 163 µM
- inhibition at 50 µg/mL ([1]; read-out: Inhibition rate, 50 μg/ml): 5.55%
- inhibition at 50 µg/mL ([2]; Table 1): 7.76%
- inhibition at 50 µg/mL ([2]; Table 2 (repeated screening)): 10.3%
- Cell status (HepG2 cells): Normal
- TC50 (MDCK (dog kidney) cells; given as dilution of the stock solution): 1/8403 of the stock solution
- (Value of the positive control - Measured Value) Value of the positive control × 100% (Hepatitis B virus (HBV)): −36.1502%
- OD450 of HBeAg (Hepatitis B virus (HBV)): 2.61

SMILES: CC(C)C1CC23OC1(O)C/C(=C\Nc1ccc(O)cc1)C2CCC3C (centres unmarked) [Compound 6, Curcumol p-hydroxy aniline hydrochloride]
- Inhibition rate ([1]; 0.08 μg/ml, hydrochloride): 0.89
- Inhibition rate ([1]; 0.40 μg/ml, hydrochloride): 1.7
- Inhibition rate ([1]; 2.0 μg/ml, hydrochloride): 2.99
- Inhibition rate ([1]; 10 μg/ml, hydrochloride): 13.15
- Inhibition rate ([1]; 50 μg/ml, hydrochloride): 7.07
- IC50 ([1]; five 5× serial dilutions from 50 μg/ml): > 146 µM
- inhibition rate, Results (%) A-549 ([2]; Table 1, hydrochloride): 91.84%
- inhibition rate, Results (%) A-549 ([2]; Table 2 (repeated screening), hydrochloride): 92.84%
- inhibition at 50 µg/mL ([2]; Table 3 (repeated screening)): 90.1%
- Cell status (HepG2 cells): Normal
- TC50 (MDCK (dog kidney) cells): 192.45 µg/mL
- Inhibition rate (%) [3, 6]: 56%
- Tumor weight [3, 6]: 1.1 ± 0.31 g
- Inhibition rate (%) [3, 7]: 68.4%
- Tumor weight [3, 7]: 0.79 ± 0.21 g
- Inhibition rate (%) [3, 8]: 75.2%
- Tumor weight [3, 8]: 0.62 ± 0.34 g
- Inhibition rate (%) [3, 9]: 57.7%
- Tumor weight [3, 9]: 1.1 ± 0.31 g
- Inhibition rate (%) [3, 10]: 68.8%
- Tumor weight [3, 10]: 0.82 ± 0.32 g
- Inhibition rate (%) [3, 11]: 72.7%
- Tumor weight [3, 11]: 0.71 ± 0.44 g
- Average weight (g)-after administration ([3]; mouse, in vivo, iv, 10 mg/kg): 22.3 g
- Average weight(g)-after administration ([3]; mouse, in vivo, iv, 10 mg/kg): 22.3 g
- Average weight (g)-after administration ([3]; mouse, in vivo, iv, 20 mg/kg): 22.9 g
- Average weight(g)-after administration ([3]; mouse, in vivo, iv, 20 mg/kg): 21.9 g
- Average weight (g)-after administration ([3]; mouse, in vivo, iv, 40 mg/kg): 22.0 g
- Average weight(g)-after administration ([3]; mouse, in vivo, iv, 40 mg/kg): 22.0 g
- inhibitory effect against mouse sarcoma S-180 (in words) [3]: good inhibitory effect
- (Value of the positive control - Measured Value) Value of the positive control × 100% (Hepatitis B virus (HBV)): 93.43%
- OD450 of HBeAg (Hepatitis B virus (HBV)): 0.126
- activity against HBV (in words) (Hepatitis B virus (HBV); primary screening, HBV e antigen, HepG2, 13 samples): had the activity against HBV
- Inhibition rate (%) [4, 12]: 7.0%
- Tumor weight [4, 12]: 2.8 ± 0.37 g
- Inhibition rate (%) [4, 13]: 47.0%
- Tumor weight [4, 13]: 1.60 ± 0.29 g
- Inhibition rate (%) [4, 14]: 61.9%
- Tumor weight [4, 14]: 1.15 ± 0.31 g
- Inhibition rate (%) [4, 15]: 13.9%
- Tumor weight [4, 15]: 2.6 ± 0.37 g
- Inhibition rate (%) [4, 16]: 47.7%
- Tumor weight [4, 16]: 1.58 ± 0.29 g
- Inhibition rate (%) [4, 17]: 60.3%
- Tumor weight [4, 17]: 1.21 ± 0.31 g
- Inhibition rate (%) [4, 18]: 7.3%
- Tumor weight [4, 18]: 2.8 ± 0.37 g
- Inhibition rate (%) [4, 19]: 46.0%
- Tumor weight [4, 19]: 1.63 ± 0.29 g
- Inhibition rate (%) [4, 20]: 56.9%
- Tumor weight [4, 20]: 1.30 ± 0.31 g
- Average weight (g)-after administration ([4]; mouse, in vivo, 10 mg/kg): 21.2 g
- Average weight(g)-after administration ([4]; mouse, in vivo, 10 mg/kg): 21.0 g
- Average weight (g)-after administration ([4]; mouse, in vivo, 20 mg/kg): 20.0 g
- Average weight(g)-after administration ([4]; mouse, in vivo, 20 mg/kg): 22.0 g
- Average weight (g)-after administration ([4]; mouse, in vivo, 40 mg/kg): 21.4 g
- Average weight(g)-after administration ([4]; mouse, in vivo, 40 mg/kg): 22.4 g
- Average weight(g)-after administration ([4]; mouse, in vivo, iv, 10 mg/kg): 22.0 g
- Average weight(g)-after administration ([4]; mouse, in vivo, iv, 20 mg/kg): 22.2 g
- Average weight(g)-after administration ([4]; mouse, in vivo, iv, 40 mg/kg): 22.1 g
- inhibitory effect against mouse grafted liver cancer H22 (in words) [4]: good inhibitory effect

SMILES: C=C1CC2(OS(=O)(=O)[O-])OC3(CC2C(C)C)C(C)CCC13.[Na+] (centres unmarked) [Compound 21, Curcumol sodium sulfonate]
- Inhibition rate ([1]; 0.08 μg/ml): 8.74
- Inhibition rate ([1]; 0.40 μg/ml): 14.77
- Inhibition rate ([1]; 2.0 μg/ml): 5.86
- Inhibition rate ([1]; 10 μg/ml): 10.16
- Inhibition rate ([1]; 50 μg/ml): 5.47
- IC50 [1, 5]: > 148 µM
- inhibition rate, Results (%) A-549 ([2]; Table 1): 26.42%
- inhibition rate, Results (%) A-549 ([2]; Table 2 (repeated screening)): 20.01%
- inhibition rate, Results (%) A-549 ([2]; Table 3 (repeated screening)): 1.23%
- TC50 (MDCK (dog kidney) cells): >1000 µg/mL
- Average weight (g)-after administration [3, 6]: 22.6 g
- Tumor weight [3, 6]: 2.6 ± 0.23 g
- Average weight (g)-after administration [3, 7]: 22.5 g
- Inhibition rate (%) [3, 7]: 4%
- Tumor weight [3, 7]: 2.4 ± 0.43 g
- Average weight (g)-after administration [3, 8]: 23.1 g
- Inhibition rate (%) [3, 8]: 8%
- Tumor weight [3, 8]: 2.3 ± 0.31 g
- Average weight(g)-after administration [3, 9]: 22.6 g
- Inhibition rate (%) [3, 9]: 3.8%
- Tumor weight [3, 9]: 2.5 ± 0.42 g
- Average weight(g)-after administration [3, 10]: 22.2 g
- Inhibition rate (%) [3, 10]: 3.8%
- Tumor weight [3, 10]: 2.5 ± 0.38 g
- Average weight(g)-after administration [3, 11]: 23.1 g
- Inhibition rate (%) [3, 11]: 7.6%
- Tumor weight [3, 11]: 2.4 ± 0.36 g
- inhibitory effect against mouse sarcoma S-180 (in words) [3]: little inhibitory effect
- (Value of the positive control - Measured Value) Value of the positive control × 100% (Hepatitis B virus (HBV)): 92.85%
- OD450 of HBeAg (Hepatitis B virus (HBV)): 0.137
- Average weight(g)-after administration [4, 12]: 22.1 g
- Tumor weight [4, 12]: 3.00 ± 0.29 g
- Average weight(g)-after administration [4, 13]: 22.0 g
- Tumor weight [4, 13]: 3.03 ± 0.41 g
- Average weight(g)-after administration [4, 14]: 22.1 g
- Inhibition rate (%) [4, 14]: 4.0%
- Tumor weight [4, 14]: 2.9 ± 0.31 g
- Average weight(g)-after administration [4, 15]: 22.1 g
- Tumor weight [4, 15]: 3.03 ± 0.29 g
- Average weight(g)-after administration [4, 16]: 22.0 g
- Tumor weight [4, 16]: 3.02 ± 0.41 g
- Average weight(g)-after administration [4, 17]: 22.1 g
- Inhibition rate (%) [4, 17]: 1.0%
- Tumor weight [4, 17]: 3.0 ± 0.31 g
- Average weight (g)-after administration [4, 18]: 22.1 g
- Tumor weight [4, 18]: 3.02 ± 0.29 g
- Average weight (g)-after administration [4, 19]: 21.0 g
- Tumor weight [4, 19]: 3.01 ± 0.41 g
- Average weight (g)-after administration [4, 20]: 20.1 g
- Inhibition rate (%) [4, 20]: 1.0%
- Tumor weight [4, 20]: 3.0 ± 0.31 g
- inhibitory effect against mouse grafted liver cancer H22 (in words) [4]: little inhibitory effect
